“And” between values parts separate entries of the source, which are not always exact repeats. Equal values may be shown once. Read-outs that look alike come from different tables or passages of the source.
What was measured:
OAT3 [1] = biological target: T1, OAT3 (Homo sapiens, UniProt Q8TCC7); assay: Inhibition of OAT3-mediated uptake in transfected HEK293 cells; type: in vitro ADME; details: from in vitro IC50 values
T1 sequence (Q8TCC7 1-542): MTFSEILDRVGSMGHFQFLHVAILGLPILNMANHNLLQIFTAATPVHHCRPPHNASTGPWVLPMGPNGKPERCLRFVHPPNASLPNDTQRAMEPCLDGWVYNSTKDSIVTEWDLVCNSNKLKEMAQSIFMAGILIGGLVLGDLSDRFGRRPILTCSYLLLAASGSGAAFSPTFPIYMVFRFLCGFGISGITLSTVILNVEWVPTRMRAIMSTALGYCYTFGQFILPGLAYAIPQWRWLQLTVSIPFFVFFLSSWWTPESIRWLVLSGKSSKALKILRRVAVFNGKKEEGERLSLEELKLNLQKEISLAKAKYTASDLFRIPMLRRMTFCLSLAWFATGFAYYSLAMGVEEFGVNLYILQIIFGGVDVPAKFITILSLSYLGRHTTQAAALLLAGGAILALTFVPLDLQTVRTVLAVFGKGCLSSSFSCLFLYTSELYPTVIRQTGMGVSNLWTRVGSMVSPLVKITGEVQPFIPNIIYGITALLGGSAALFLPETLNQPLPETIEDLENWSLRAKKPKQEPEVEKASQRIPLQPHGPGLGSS

[2] = PDA, cited from earlier work
OAT1/3 [3] = details: PDA, cited from earlier work
[4] = parameters: species or system human; details: PDA; in vitro-in vivo scaling
OAT1/3 [5] = assay: Effect of OAT inhibitors on PDA pharmacokinetics in clinical DDI studies; details: for AUC ratio / Cmax ratio: PDA; for AUC(0-t) / Cmax: both, human, in vivo
OAT3 [6] = biological target: T1, OAT3; assay: PDA uptake in OAT3-transfected HEK293 cells and RAF scaling; type: in vitro ADME
OAT2 = biological target: T2, OAT2 (Homo sapiens, UniProt Q9Y694); assay: PDA uptake in OAT2-transfected HEK293 cells and RAF scaling; type: in vitro ADME
T2 sequence (Q9Y694 1-546 isoform Q9Y694-2): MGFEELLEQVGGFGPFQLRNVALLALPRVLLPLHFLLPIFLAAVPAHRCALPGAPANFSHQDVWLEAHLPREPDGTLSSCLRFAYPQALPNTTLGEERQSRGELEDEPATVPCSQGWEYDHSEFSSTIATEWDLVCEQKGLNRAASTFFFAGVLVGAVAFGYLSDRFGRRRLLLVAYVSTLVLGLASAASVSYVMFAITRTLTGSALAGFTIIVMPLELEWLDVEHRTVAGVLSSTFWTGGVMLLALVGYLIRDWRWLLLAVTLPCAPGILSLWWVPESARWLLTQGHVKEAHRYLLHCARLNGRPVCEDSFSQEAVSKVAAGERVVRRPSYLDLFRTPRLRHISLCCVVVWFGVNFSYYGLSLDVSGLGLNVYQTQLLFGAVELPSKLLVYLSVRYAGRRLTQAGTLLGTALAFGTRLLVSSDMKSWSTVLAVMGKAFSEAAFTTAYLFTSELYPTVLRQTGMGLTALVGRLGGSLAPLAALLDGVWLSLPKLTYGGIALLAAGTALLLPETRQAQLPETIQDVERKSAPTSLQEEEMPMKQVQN

[7] = PDA plasma and urine levels at baseline in five clinical studies; type: in vivo, human; details: for AUC(0-t) / Cmax / concentration at 0 min / CL renal: human; for AUC(0-t) / Cmax / concentration at 0 min: plasma; for AUC(0-t): AUC0-24h; for concentration at 0 min: predose (0 min) plasma concentration; for CL renal: CLR
OAT1 = biological target: T3, OAT1 (Homo sapiens, UniProt Q4U2R8); assay: PDA uptake in OAT1-transfected HEK293 cells and RAF scaling; type: in vitro ADME
T3 sequence (Q4U2R8 1-563): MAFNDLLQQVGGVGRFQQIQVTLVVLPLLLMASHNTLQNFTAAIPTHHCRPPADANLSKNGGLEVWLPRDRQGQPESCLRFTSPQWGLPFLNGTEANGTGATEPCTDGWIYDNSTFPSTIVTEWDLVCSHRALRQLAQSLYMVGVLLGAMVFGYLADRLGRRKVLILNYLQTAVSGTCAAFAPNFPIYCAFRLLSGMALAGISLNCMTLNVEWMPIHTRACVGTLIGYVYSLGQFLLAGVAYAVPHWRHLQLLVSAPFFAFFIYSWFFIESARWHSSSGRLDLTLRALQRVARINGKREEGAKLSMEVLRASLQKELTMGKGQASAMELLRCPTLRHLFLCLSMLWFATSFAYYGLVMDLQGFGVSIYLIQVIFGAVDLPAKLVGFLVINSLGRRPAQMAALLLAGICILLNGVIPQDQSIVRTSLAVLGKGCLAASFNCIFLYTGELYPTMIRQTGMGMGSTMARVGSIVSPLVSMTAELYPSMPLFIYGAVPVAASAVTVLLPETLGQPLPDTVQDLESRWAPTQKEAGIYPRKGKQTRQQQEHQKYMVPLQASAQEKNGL

[8] = Shen 2019 Study 1, presence/absence of probenecid
[9] = Shen 2019 Study 1, probenecid 1000 mg single oral dose
[10] = Shen 2019 Study 2, presence/absence of probenecid
[11] = Shen 2019 Study 2, probenecid 1000 mg single oral dose
[12] = Willemin 2021, presence/absence of probenecid
[13] = Willemin 2021, probenecid 500 mg multiple oral doses
[14] = presence/absence of probenecid 1000 mg BID, Study 1
[15] = presence/absence of ritlecitinib 200 mg QD, Study 2
[16] = physiological scalars and relative activity factors
[17] = both, PDA plasma, Study 1 baseline (no inhibitor), n=12
[18] = both, PDA plasma, Study 2 baseline, n=12
[19] = both, PDA plasma, Study 3 baseline, n=12
[20] = male, PDA plasma, Study 5 baseline, males, n=23

With `CCCN(CCC)S(=O)(=O)c1ccc(C(=O)O)cc1` [Probenecid] the “potency as inhibitor for OAT3 versus OAT1” value (OAT3 [1]) was 5 fold.

In the case of `Cc1ncc(CO)c(C(=O)O)c1O` [PDA, Pyridoxic acid], the “fu,plasma” value [2] is given as 0.08–0.1, the “fu,plasma” value ([2]; ref 13 (supplement ref 7)) is given as 0.092 and the “inter-individual variability in predose plasma concentrations” value (OAT1/3 [3]; Indian population) is given as 33 fold and ~ 33 fold. For the same compound, the AUC0-24h (OAT1/3 [3]; Shen 2019 Study 1, baseline) was 46 ± 53.7 ng·h/mL, the CLR (OAT1/3 [3]; Shen 2019 Study 1, baseline) was 226.7 ± 268.3 mL/min and the Cmax (OAT1/3 [3]; Shen 2019 Study 1, baseline) was 3.3 ± 4.6 ng/mL. The AUC ratio (OAT1/3 [3]; [8]) was 3.1, the CLR ratio (OAT1/3 [3]; [8]) was 0.37 and the Cmax ratio (OAT1/3 [3]; [8]) was 3.1. For the same compound, the AUC0-24h (OAT1/3 [3]; [9]) was 116 ± 151 ng·h/mL, the CLR (OAT1/3 [3]; [9]) was 65 ± 55 mL/min and the Cmax (OAT1/3 [3]; [9]) was 9.3 ± 11.5 ng/mL. The AUC0-24h (OAT1/3 [3]; Shen 2019 Study 2, baseline) was 57.9 ± 75.7 ng·h/mL, the CLR (OAT1/3 [3]; Shen 2019 Study 2, baseline) was 221.7 ± 221.7 mL/min and the Cmax (OAT1/3 [3]; Shen 2019 Study 2, baseline) was 3.6 ± 4.5 ng/mL. For the same compound, the AUC ratio (OAT1/3 [3]; [10]) was 3.2, the CLR ratio (OAT1/3 [3]; [10]) was 0.4 and the Cmax ratio (OAT1/3 [3]; [10]) was 3.4. For the same compound, the AUC0-24h (OAT1/3 [3]; [11]) was 152 ± 174 ng·h/mL, the CLR (OAT1/3 [3]; [11]) was 67.6 ± 41.2 mL/min and the Cmax (OAT1/3 [3]; [11]) was 10.1 ± 10.2 ng/mL. For the same compound, the AUC0-24h (OAT1/3 [3]; Willemin 2021, baseline) was 71.8 ± 21.3 ng·h/mL, the CLR (OAT1/3 [3]; Willemin 2021, baseline) was 328.3 ± 203.3 mL/min and the Cmax (OAT1/3 [3]; Willemin 2021, baseline) was 3.6 ± 0.8 ng/mL. For the same compound, the AUC ratio (OAT1/3 [3]; [12]) was 3.7, the CLR ratio (OAT1/3 [3]; [12]) was 0.17 and the Cmax ratio (OAT1/3 [3]; [12]) was 3.7. For the same compound, the AUC0-24h (OAT1/3 [3]; [13]) was 271 ± 93 ng·h/mL, the CLR (OAT1/3 [3]; [13]) was 53.3 ± 25 mL/min and the Cmax (OAT1/3 [3]; [13]) was 13.7 ± 4.1 ng/mL. For the same compound, the “contribution of glomerular filtration to total CLR” value [4] was 5% and ~ 5%, the AUC ratio (OAT1/3 [5]; [14]) was 3.2 and the Cmax ratio (OAT1/3 [5]; [14]) was 3. It also gave an AUC ratio (OAT1/3 [5]; [15]) of 1.1, a Cmax ratio (OAT1/3 [5]; [15]) of 1.1 and an AUC ratio (OAT1/3 [5]; presence/absence of tafamidis 61 mg, Study 3) of 1.2. It also gave an AUC(0-t) (OAT1/3 [5]; 200 mg) of 72.8 ± 22.6 ng·h/mL, a Cmax (OAT1/3 [5]; 200 mg) of 3.9 ± 1 ng/mL and an AUC(0-t) (OAT1/3 [5]; 1000 mg) of 235 ± 76 ng·h/mL. For the same compound, the Cmax (OAT1/3 [5]; 1000 mg) was 11.9 ± 3.4 ng/mL, the “ft (fraction transported) OAT3” value (OAT3 [6]; PDA renal secretion) was 0.82 and the “active uptake clearance via OAT3, scaled” value (OAT3 [6]; [16]) was 7.55 mL/min/kg. For the same compound, the “ft (fraction transported) OAT2” value (OAT2; PDA renal secretion) was under 0.1, the “contribution of OAT2-specific active secretion to total CLR” value (OAT2; PDA, in vitro-in vivo scaling) was 6% and the “active uptake clearance via OAT2, scaled” value (OAT2; [16]) was 0.35 mL/min/kg. For the same compound, the “intra-individual variability in plasma concentration across 0-24 h” value ([7]; PDA) was 16 % CV, the “amount excreted unchanged in urine lower in White males than Japanese males” value ([7]; PDA, Studies 4 and 5) was 35% and the “variability in predose plasma concentrations and AUC0-24h” value ([7]; PDA, across the five studies) was under 6 fold. For the same compound, the “inter-individual (overall) variability in plasma concentration” value ([7]; PDA, all five studies, n = 71) was ~ 40% and < 40%, the “overall variability in AUC0-24h” value ([7]; PDA, five studies) was 38% and the “overall variability in predose plasma concentration” value ([7]; PDA, five studies) was 44%. For the same compound, the “AUC0-24h / baseline plasma level higher in White males than Japanese males” value ([7]; PDA, p < 0.05) was 38%, the “CLR lower in White males than Japanese males” value ([7]; PDA, p < 0.05) was ~ 54% and the “amount excreted in urine higher in Japanese males than White males” value ([7]; PDA, p < 0.05) was 1.5 fold. The “renal clearance higher in Japanese males than White males” value ([7]; PDA, p < 0.05) was 2.2 fold and ~ 2.2 fold, the “average AUC0-24h and Cmax lower in Hispanic/Latino compared to Whites” value ([7]; PDA, p > 0.05) was ~ 30% and the “AUC0-24h higher in Study 5 compared to Study 4” value ([7]; PDA, ~70% White males vs all Japanese males) was 35%. The AUC(0-t) [7, 17] was 86.7 ± 47.4 ng·h/mL, the AUC(0-t) [7, 18] was 70.5 ± 24.3 ng·h/mL and the AUC(0-t) [7, 19] was 64.2 ± 21.2 ng·h/mL. For the same compound, the Cmax [7, 17] was 4.6 ± 2.5 ng/mL, the Cmax [7, 18] was 3.8 ± 1.3 ng/mL and the Cmax [7, 19] was 3.5 ± 1.1 ng/mL. It also gave a concentration at 0 min ([7]; both, mean, PDA, across the five studies) of 3.3 ng/mL, a concentration at 0 min ([7]; both, range, PDA, across the five studies) of 1.6 to 9.2 ng/mL and an AUC(0-t) ([7]; male, PDA plasma baseline, males only, Japanese (13)) of 56.5 ± 15.2 ng·h/mL. It also gave an AUC(0-t) ([7]; male, PDA plasma baseline, males only, White (37)) of 78.2 ± 28.2 ng·h/mL, an AUC(0-t) [7, 20] of 74.6 ± 15.7 ng·h/mL and a Cmax [7, 20] of 4.6 ± 1.9 ng/mL. It also gave a CL renal ([7]; male, urine and plasma, PDA, Study 5 baseline) of 230 ± 54.2 mL/min, a CL renal ([7]; male, urine, PDA, Japanese males (13)) of 546 ± 122 mL/min and a CL renal ([7]; male, urine, PDA, White males (16)) of 250 ± 48.2 mL/min. The “ft (fraction transported) OAT1” value (OAT1; PDA renal secretion) was under 0.1, the “contribution of OAT1-specific active secretion to total CLR” value (OAT1; PDA, in vitro-in vivo scaling) was 7% and the “active uptake clearance via OAT1, scaled” value (OAT1; [16]) was 3.31 mL/min/kg.

With `C=CC(=O)N1C[C@H](Nc2ncnc3[nH]ccc23)CC[C@@H]1C` [Ritlecitinib] the “change in PDA plasma concentration in the clinic” value (OAT1/3 [5]; ritlecitinib) was “no‐change” and the “change in the AUC0-24h and Cmax of PDA” value (OAT1/3 [5]; ritlecitinib administration, Study 2) was “no significant change”.

— article PMC12072223 (CPT: Pharmacometrics & Systems Pharmacology, 2025)
